Source: patent US5100909A, “Acetylenic imidazoles having central nervous system activity” (The Upjohn Company, priority 1991, dated 1992)
Values joined by “and” are separate entries in the source; they are usually repeats but may differ in a detail not shown here. Equal values may be shown once. Read-outs that look alike come from different tables or passages of the source.

Experiments:
[1] = system: oxotremorine-induced body tremor in mice; assay: Oxotremorine antagonist assay (body tremor) in mice; type: in vivo; settings: Mus musculus, ip, read-out: Oxot. Antagonist Tremor (ED50)
Description: Oxotremorine antagonist assays were performed on groups of six mice weighing 18-22 g. Each was dosed intraperitoneally with the test compound prepared in 0.25% methylcellulose and were placed in individual cages. Twenty minutes later the mice were injected subcutaneously with 0.5 mg/kg of oxotremorine dissolved in saline. Ten minutes later the mice were scored for body tremor. Doses of the compound under study began at 100 mg/kg and were decreased at a 0.5 log interval until no responders were obtained.

[2] = system: HCl-induced writhing in CF1 mice; assay: Analgesic activity, HCl writhing protection in mice; type: in vivo; settings: Mus musculus, sc, 0.25 h, read-out: CNS Id (ED50 mg/kg) HCl Writh. Protect
Description: For determination of analgesic activity, the test compound was injected subcutaneously into a group of four CF1 mice. Thirty minutes later the mice were injected i.p. with 0.15% HCl, 10 ml./kg. Mice are then placed in plastic boxes and observed for fifteen minutes to record the number of animals failing to writhe.

[3] = target: CNS cholinergic receptor; assay: Cholinergic receptor binding assay, tritiated oxotremorine M ligand; settings: read-out: CNS Cholinergic Receptor Binding Assays Ki (nM) Oxotremorine
[4] = system: CNS cholinergic receptor; type: binding; settings: for Ki ratio (Ki QNB/Ki oxotremorine M): QNB vs oxotremorine M binding; for cholinergic agonist / antagonist / partial agonist classification by Ki ratio: from Ki QNB/Ki oxotremorine M ratio; for Ki: tritiated quinuclidine benzylate, read-out: CNS Cholinergic Receptor Binding Assays Ki (nM) QNB
[5] = system: scopolamine-induced amnesia in mice; assay: Antagonism of amnesia produced by scopolamine, one trial step through passive avoidance; type: in vivo, mouse; settings: i.p. test compound, scopolamine hydrobromide 1 mg/kg s.c.; retention 24 hrs
Description: For antagonism of amnesia produced by scopolamine a one trial, step through passive avoidance paradigm was used. In this procedure a mouse was placed on a square platform adjoining darkened chamber. The mouse could enter the chamber through a hole above the platform. Following placement on the platform, the mouse was enclosed by a clear plexiglas cover which mildly restricted movement, limiting the animal to turning around and partial rearing. A sliding door was opened after this, exposing the entrance to the chamber. A timer was started at the same time the door was opened, in order to record latency to enter the chamber. Upon complete entry into the darkened box, the door was closed behind the mouse and a 1 mA, 2 sec, direct current shock applied to the feet of the mouse through the grid floor. The mouse was immediately removed from the chamber and returned to a 24 hr group holding cage.
Drug testing involved intraperitoneal injection of the test compound followed 15 min later by subcutaneous injection of 1 mg/kg scopolamine hydrobromide. […] The latency for each mouse to enter the chamber was recorded, with a cut-off at 180 sec.
Median group latencies to enter the chamber during both training and testing were recorded and a Wilcoxon rank sum test applied to data comparing the parallel "scopolamine only" group with all drug combination groups on testing. […]

[6] = i.p. test compound, 20 min before oxotremorine 0.5 mg/kg s.c., mice
[7] = s.c. test compound, 30 min before 0.15% HCl i.p., CF1 mice

Row | SMILES | ED50 [1, 6] | ED50 [2, 7] | ED50 [1] | Ki [3] | Ki ratio (Ki QNB/Ki oxotremorine M) [4] | cholinergic agonist / antagonist / partial agonist classification by Ki ratio [4] | Ki [4] | ED50 [2] | antagonism of amnesia produced by scopolamine [5]
1 | CC(=O)N(C)C(C)C#CCN1CCCC1 (stereo not drawn) [BM-5, reference compound] | 3.7 mg/kg | 4.4 mg/kg |  |  |  |  |  |  | 
2 | O=C1CCCN1CC#CCn1ccnc1 [Compound 1, 1-[4-(1H-Imidazol-1-yl)-2-butynyl]-2-pyrrolidinone] |  | 0.4 mg/kg | > 100 mg/kg | 1.3 nM | > 100 | cholinergic agonists | 600 nM |  | 
3 | Cc1nccn1CC#CCN1CCCC1=O [Compound 2, 1-[4-(2-Methyl-1H-imidazol-1-yl)-2-butynyl]-2-pyrrolidinone] | > 100 mg/kg | 0.1 mg/kg |  | 0.3 nM | < 10 | cholinergic antagonists | 3.8 nM |  | 
4 | Cc1cncn1CC#CCN1CCCC1=O [Compound 3, 1-[4-(5-Methyl-1H-imidazol-1-yl)-2-butynyl]-2-pyrrolidinone] |  | 2.6 mg/kg |  | 3.2 nM and 3.3 nM | intermediate Ki ratios | cholinergic partial agonists | 64 nM and 79.8 nM |  | 
5 | Cc1cn(CC#CCN2CCCC2=O)c(C)n1 [Compound 4, 1-[4-(2,4-Dimethyl-1H-imidazol-1-yl)-2-butynyl]-2-pyrrolidinone] | 54 mg/kg |  |  | 68 nM |  |  | 160 nM | > 50 mg/kg | 
6 | CC1CCC(=O)N1CC#CCn1ccnc1 (stereo not drawn) [Compound 5, 1-[4-(1H-Imidazol-1-yl)-2-butynyl]-5-methyl-2-pyrrolidinone] | 20.9 mg/kg | > 50 mg/kg |  | 23 nM |  |  | 171 nM |  | 
7 | CC(C#CCn1ccnc1)N1CCCC1=O (stereo not drawn) [Compound 6, 1-[4-(1H-Imidazol-1-yl)-1-methyl-2-butynyl]-2-pyrrolidinone] | 45 mg/kg | > 50 mg/kg |  | 33.5 nM |  |  | 566 nM |  | 
8 | CCc1nccn1CC#CCN1CCCC1=O [Compound 7, 1-[4-(2-Ethyl-1H-imidazol-1yl)-2-butynyl]-2-pyrrolidinone] | 9.7 mg/kg | > 50 mg/kg |  | 29.1 nM |  |  | 56.9 nM |  | 
9 | O=C1CCCN1CC#CCn1ccnc1Cl [Compound 8, 1-[4-(2-Chloro-1H-imidazol-1-yl)-2-butynyl]-2-pyrrolidinone] | > 100 mg/kg |  |  | 577 nM |  |  |  |  | 
10 | Cc1cn(CC#CCN2CCCC2=O)cn1 [Compound 9, 1-[4-(4-Methyl-1H-imidazol-1-yl)-2-butynyl]-2-pyrrolidinone] | > 100 mg/kg |  |  | 10.3 nM |  |  | 377 nM |  | 
11 | O=C1CCC(=O)N1CC#CCn1ccnc1 [Compound 10, 1-[4-(1H-Imidazol-1-yl)-2-butynyl]-2,5-pyrrolidinedione] |  |  | 25 mg/kg | 23.5 nM |  |  | 634 nM |  | 
12 | Cc1cncn1CC#CCN1C(=O)CCC1=O [Compound 11, 1-[4-(5-Methyl-1H-imidazol-1-yl)-2-butynyl]-2,5-pyrrolidinedione] |  |  | 37 mg/kg | 10.3 nM |  |  | 100 nM |  | 
13 | Br.Cc1cncn1CC#CC(C)N1CCCC1=O (stereo not drawn) [Compound 12, 1-[4-(5-Methyl-1H-imidazol-1-yl)-1-methyl-2-butynyl]-2-pyrrolidinone hydrobromide] | 25 mg/kg |  |  | 5.2 nM |  |  | 16.8 nM |  | 
14 | Cc1cncn1CC#CCN1C(=O)CCC1C (stereo not drawn) [Compound 13] | 14 mg/kg |  |  | 1.7 nM |  |  | 11.6 nM |  | 
15 | CC(=O)N(C)C(C)C#CCn1ccnc1 (stereo not drawn) [Compound 14, N-[4-(1H-Imidazol-1-yl)-1-methyl-2-butynyl]-N-methylacetamide] | > 100 mg/kg | 0.9 mg/kg |  | 12 nM |  |  | 1500 nM |  | 
16 | CC(=O)N(C)C(C)C#CCn1ccnc1C (stereo not drawn) [Compound 15, N-[4-(2-Methyl-1H-imidazol-1-yl)-1-methyl-2-butynyl]-N-methylacetamide] | 11.8 mg/kg | > 50 mg/kg |  | 1.6 nM |  |  | 19 nM |  | most active
17 | CC(=O)N(C)C(C)C#CCn1cnc(C)c1C (stereo not drawn) [Compound 16, N-[4-(4,5-Dimethyl-1H-imidazol-1-yl)-1-methyl-2-butynyl]-N-methylacetamide] | 25.4 mg/kg | > 50 mg/kg |  | 42 nM |  |  | 79 nM |  | 

Row | SMILES | ED50 [1, 6] | ED50 [2, 7] | ED50 [1] | Ki [3] | Ki ratio (Ki QNB/Ki oxotremorine M) [4] | cholinergic agonist / antagonist / partial agonist classification by Ki ratio [4] | Ki [4] | ED50 [2] | antagonism of amnesia produced by scopolamine [5]
18 | CC(=O)N(C)C(C)C#CCn1cc(C)nc1C (stereo not drawn) [Compound 17, N-[4-(2,4-Dimethyl-1H-imidazol-1-yl)-1-methyl-2-butynyl]-N-methylacetamide] | 80 mg/kg | > 50 mg/kg |  | 130 nM |  |  | 180 nM |  | 
19 | CC(=O)N(C)C(C)C#CCn1c(C)cnc1C (stereo not drawn) [Compound 18, N-[4-(2,5-Dimethyl-1H-imidazol-1-yl)-1-methyl-2butynyl]-N-methylacetamide] | 14.2 mg/kg |  |  | 6.3 nM |  |  | 8.5 nM |  | 
20 | CC(=O)N(C)CC#CCn1ccnc1 [Compound 19, N-[4-(1H-Imidazol-1-yl)-2-butynyl]-N-methylacetamide] | > 100 mg/kg |  |  | 1.9 nM |  |  |  |  | 
21 | CC(=O)N(C)CC#CCn1cncc1C [Compound 20, N-[4-(5-Methyl-1H-imidazol-1-yl)-2-butynyl]-N-methylacetamide] | > 100 mg/kg |  |  | 3.6 nM |  |  | 172 nM |  | 
22 | CC(=O)N(C)C(C)C#CCn1cncc1C (stereo not drawn) [Compound 21, N-[4(5-Methyl-1H-imidazol-1-yl)-1-methyl-2-butynyl]-N-methylacetamide] | 80 mg/kg |  |  | 10 nM |  |  | 184 nM |  | 
23 | CC(=O)NCC#CCn1ccnc1 [Compound 22, N-[4-(1H-Imidazol-1-yl)-2-butynyl]acetamide] | > 100 mg/kg |  |  | 187 nM |  |  |  |  | 
24 | CC(=O)NCC#CCn1cncc1C [Compound 23, N-[4-(5-Methyl-1H-imidazol-1-yl)-2-butynyl]acetamide] | > 100 mg/kg |  |  | 213 nM |  |  |  |  | 
25 | CN(C)C(=O)N(C)CC#CCn1ccnc1 [Compound 24, [4-(1H-Imidazol-1-yl)-2-butynyl]trimethyl urea] | > 100 mg/kg |  |  | 34 nM |  |  |  |  | most active
26 | Cc1cncn1CC#CCN(C)C(=O)N(C)C [Compound 25, [4-(5-Methyl-1H-imidazol-1-yl)-2-butynyl]trimethyl urea] | > 100 mg/kg |  |  | 82.1 nM |  |  |  |  | 
27 | COC(=O)N(C)CC#CCn1ccnc1 [Compound 26, Methyl [4-(1H-imidazol-1-yl)-2-butynyl]methylcarbamate] | > 100 mg/kg |  |  | 120 nM |  |  |  |  | 
28 | COC(=O)N(C)CC#CCn1cncc1C [Compound 27, Methyl [4-(5-methyl-1H-imidazol-1-yl)-2-butynyl]methyl carbamate] | > 100 mg/kg |  |  | 200 nM |  |  |  |  | 
29 | C(#CCn1ccnc1)CN1CCCC1 [Compound 28, 1-[4-(Pyrrolidinyl)-2-butynyl]-1H-imidazole] |  |  | > 100 mg/kg |  |  |  |  | 3.1 mg/kg | 
30 | CN(C)CC#CCn1ccnc1 [Compound 29, 4-(1H-Imidazol-1-yl)-N,N-dimethyl-2-butyn-1-amine] |  |  | > 100 mg/kg | 10000 nM |  |  |  | > 50 mg/kg | 
31 | Cc1nccn1CC#CCN1CCCC1 [Compound 30, 2-Methyl-1-[4-(pyrrolidinyl)-2-butynyl]-1H-imidazole] |  |  | > 100 mg/kg |  |  |  |  | 5 mg/kg | 
32 | CCN(CC)CC#CCn1ccnc1 [Compound 31, N,N-Diethyl-4-(1H-Imidazol-1-yl)-2-butyn-1-amine] |  |  | > 100 mg/kg | 10000 nM |  |  |  | > 50 mg/kg | 
33 | Cc1cncn1CC#CCN1CCCC1 [Compound 32, 5-Methyl-1[(4-pyrrolidinyl)-2-butynyl]-1H-imidazole] |  |  | > 100 mg/kg | 436 nM |  |  |  |  | 
34 | C(#CCN1CCCC1)CN1CCCC1 [Tremorine, reference compound] |  |  | > 100 mg/kg | 370 nM |  |  | 4600 nM |  | 
